In US8937167B2 (Washington University, priority 2009, dated 2015):
Entries after “also recorded” stand apart in the source; their conditions may differ.

Columns and labels:
[1] = tested on: UTI89 biofilm; assay: Disruption of preformed UTI89 biofilm (PVC plates, coverslips, confocal); type: cell-based, uropathogenic E. coli UTI89; details: mannoside added to 24 h biofilm, further 16 h; confocal at 0.3 μM
Experimental: UTI89 biofilm was grown in LB+/− mannoside for 24 h at 22° C. in PVC plates and quantitated using crystal violet. UTI89 biofilm for confocal microscopy was grown in LB for 24 h at 22° C. on PVC coverslips. Mannoside was then added and biofilm was grown for an additional 16 h. Coverslips were then washed in PBS, fixed in 2% paraformaldehyde and stained with SYTO9 prior to confocal microscopy. For all animal experiments UTI89 or PBC-1 was grown 2×24 h statically in LB at 37° C. and inoculated at a dose of 1×10^7 bacteria in 50 μl. All mice used were female C3H/HeN (Jackson). For the pretreatment studies, bacteria were incubated with mannoside for 20 min prior to inoculation into the mouse. […] After growth at 37° C. overnight, bacterial counts were determined. […]
Biofilm assay. […] After 48 h of growth, wells were rinsed with water and stained with crystal violet for quantification as described. […] Wells were then rinsed, stained with crystal violet and quantified. […]
UTI89 was grown in LB in PVC plates and allowed to form biofilm at RT for 24 or 48 h. […] Biofilm formation was then quantitated using the standard crystal violet assay. […]
UTI89 was grown in LB broth in wells of PVC microtiter plates at 23° C. in the presence of individual mannosides at varying concentrations. After 48 h of growth, wells were rinsed with water and stained with crystal violet for quantification as described. […]

[2] = Mouse urine pharmacokinetics of mannosides (LC-MS); details: in vivo
Experimental: Pharmacokinetic (PK) studies with ZFH-2056 evaluated in vivo dosing conditions after intraperitoneal (IP) injection or oral (PO) gavage. ZFH-2056 was dosed IP and compound levels in the urine were evaluated at several timepoints by HPLC using mass spectrometry (MS) detection. […] Since oral dosing is the desired route of delivery, we next evaluated the concentration of drug after 100 mg/kg PO of ZFH-2056.
(§1) Pharamacokinetic analysis. For intraperitoneal dosing, 50 μl of a 2 mg/ml (5 mg/kg) or 4 mg/ml (10 mg/kg) solution of ZFH-2056 in PBS was injected into the peritoneal cavity of the mouse. For oral dosing, 100 μl of a 20 mg/ml (100 mg/kg) solution of ZFH-2056 in 8% DMSO was inoculated with a gavage needle into the mouse stomach. Urine was collected at 30 min, 1, 2, 3, 4, 6, and 8 h post-treatment. An equal volume of 10 μM internal standard (ZFH-2050) was added to the urine. Mannosides were extracted from the urine by loading on C18 columns (100 mg, Waters), washing with 30% methanol, and eluting with 60% methanol. […] Absolute quantification was achieved by comparison to a calibration curve.
as §1, with “For” for “Pharamacokinetic analysis. For intraperitoneal dosing, 50 μl of a 2 mg/ml (5 mg/kg) or 4 mg/ml (10 mg/kg) solution of ZFH-2056 in PBS was injected into the peritoneal cavity of the mouse. For”

[3] = biological target: T1, FimH lectin domain (residues 1-158 of UPEC J96 FimH) (Escherichia coli, UniProt P08191); type: binding; details: Table 20; compound at 100 μM
T1 construct: made in house
T1 sequence (P08191 22-179): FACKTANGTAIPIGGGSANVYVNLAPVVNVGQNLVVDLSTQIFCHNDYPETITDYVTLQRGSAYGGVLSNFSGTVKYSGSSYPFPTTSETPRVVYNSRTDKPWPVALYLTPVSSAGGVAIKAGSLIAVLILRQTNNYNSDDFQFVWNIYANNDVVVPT

| SMILES | disruption / dispersal of preformed biofilm, qualitative [1] | drug cleared to the urine intact / unchanged [2] [%] | hydrolysis products (D-mannose and phenol) in urine [2] [%] | level in urine ([2]; ip) [nM] | DSF Melting Temp. [3] [°C] |
| --- | --- | --- | --- | --- | --- |
| CNC(=O)c1cc(C(=O)NC)cc(-c2ccc(O[C@H]3O[C@H](CO)[C@@H](O)[C@H](O)[C@@H]3O)cc2)c1 [ZFH-2056] | lacked continuity; also recorded: dispersed biofilm | > 95 | < 5 | ≤ 740 | – |
| COC(=O)c1cccc(-c2ccc(O[C@H]3O[C@H](CO)[C@@H](O)[C@H](O)[C@@H]3O)cc2)c1 [Compound 1, phenyl mannoside, reference compound] | – | – | – | – | 73.39 |
